Among the data in patent US9175013B2, “Fused aminodihydrothiazine derivatives” (Eisai R&D Management Co., Ltd., priority 2011, dated 2015) are IC50 values, retold here.

The assay relates to Aβ peptide production in rat primary neuronal culture. Nature of the assay: In vitro cellular assay: quantification of Aβ peptide in culture of neurons from rat fetus brain. The assay is classed as cell-based, Wistar rat. The conditions noted are these: Primary cortical neuron. Here is the method: Quantification of Aβ Peptide in Culture of Neurons from Rat Fetus Brain
Primary neuronal cultures were prepared from the cerebral cortex of embryonic day 18 Wistar rats (Charles River, UK). Specifically, the embryos were aseptically removed from pregnant rats under ether anesthesia. The brain was isolated from the embryo and immersed in HBSS (Sigma Aldrich #H9269) containing 10 mM HEPES (Gibco #15630-056). The cerebral cortex was collected from the isolated brain under a stereoscopic microscope. The cerebral cortex fragments collected were enzymatically treated in an enzyme solution containing 0.05% trypsin-EDTA solution (GIBCO, #25300) at 37° C. for 20 minutes to disperse the cells. The cells were then washed twice and then gently resuspended in Neurobasal medium (Gibco #21103) supplemented with 2% B27 supplement (GIBCO #17504-044), 0.5 mM L-glutamine (GIBCO #25030), 1×N2 (GIBCO #17502-048), 100 μg/ml Pen/Strep (GIBCO 15140-122) and 5% heat inactivated FCS (PAA #A15-701). The cell dispersion was filtered through a 40-μm nylon mesh (BD Falcon #352340) to remove the remaining cell mass, and thus a neuronal cell suspension was obtained. The neuronal cell suspension was diluted with the medium above and then plated in a volume of 100 μL/well at an initial cell density of 3.25×10^5 cells/ml in poly-D-lysine coated 96-well culture plate (Greiner #655940). The plated cells were cultured in the culture plate at 37° C. in 5% CO2-95% air for 24 hrs. The total amount of the medium was replaced with ‘assay Neurobasal medium’ (as above excluding heat inactivated FCS), and then the cells were cultured for a further five days.
The drug was added to the culture plate on Day 6 of culture as follows. 8 point compound serial dilutions were generated in DMSO at a concentration of ×1000 that of the final assay concentration (FAC). Compound solutions were then prepared by adding 999 ul of ‘Assay Neurobasal media’ (as described in above section) to 1 ul of DMSO compound stock. The total amount of the medium was removed from each of the cell plate wells, and […] of ‘Assay Neurobasal media’ was added followed by […] of compound solution. The final DMSO concentration was 0.1%. […]
Cell survival was evaluated using an Alamar assay according to the following procedure. […]
Measurement of fluorescence intensity for each well was the carried out at 540/590 nm using a Pherastar plus plate reader (BMG labtech). […]
Human/Rat β Amyloid (42) ELISA Kit Wako (#290-62601) and Human/Rat P Amyloid (40) ELISA Kit Wako (#294-62501) from Wako Pure Chemical Industries, Ltd. were used for Aβ ELISA. […] The results were shown as percentage of the control groups and IC50 values for each compound were determined using four parameter logistic fit model using the XLFIT5 software package (IDBS).

[1] abbreviates: Aβ ELISA, rat primary cortical neurons, Aβ species (x-40 or x-42) not given, read-out: IC50.

The structures appear in SMILES notation. Where two headings read alike, the source gives them in different places.

As to `COc1cnc(C(=O)Nc2ccc(F)c([C@]34CO[C@H](CF)[C@H]3CSC(N)=N4)c2)cn1` [Example 2, N-(3-((4aS,5S,7aS)-2-amino-5-(fluoromethyl)-4a,5,7,7a-tetrahydro-4H-furo[3,4-d][1,3]thiazin-7a-yl)-4-fluorophenyl)-5-methoxypyrazine-2-carboxamide], the IC50 (Rattus norvegicus) is 4 nM.

Turning to `COc1cnc(C(=O)Nc2ccc(F)c([C@]34CO[C@H](C(F)F)[C@H]3CSC(N)=N4)c2)cn1` [Example 3, N-(3-((4aS,5S,7aS)-2-amino-5-(difluoromethyl)-4a,5,7,7a-tetrahydro-4H-furo[3,4-d][1,3]thiazin-7a-yl)-4-fluorophenyl)-5-methoxypyrazine-2-carboxamide], the IC50 under setting [1] worked out at 4 nM. On the same count and under the same terms, the figure for `COc1cnc(C(=O)Nc2cc(F)c(F)c([C@]34CO[C@H](CF)[C@H]3CSC(N)=N4)c2)cn1` [Example 4, N-(3-((4aS,5S,7aS)-2-amino-5-(fluoromethyl)-4a,5,7,7a-tetrahydro-4H-furo[3,4-d][1,3]thiazin-7a-yl)-4,5-difluorophenyl)-5-methoxypyrazine-2-carboxamide] is 12 nM.

The IC50 is the concentration that inhibits the measured activity by half.
